“And” between values parts separate entries of the source, which are not always exact repeats. Identical values can stand only once. Inconclusive results and toxic doses are left out. Rule for the calls: active = survival T/C of 150% or more; inactive = T/C below 125% in these data.
System: P388 leukemia ip, CD2F1 mice, survival T/C
Experiment: NCI In Vivo Anticancer Drug Screen. Data for tumor model P388 Leukemia (intraperitoneal) in CD2F1 (CDF1) mice
Settings: endpoint: median survival time, higher = longer survival
In short: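 Mice carrying the transplanted tumor received test compound or vehicle. Survival was recorded in each group, and the value is the treated-group measurement divided by that of the vehicle-treated control group.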

[1] = dose: 100.0 mg/kg/injection, schedule: Q01DX001 (ip), vehicle: saline with Tween-80
[2] = dose: 200.0 mg/kg/injection, schedule: Q01DX001 (ip), vehicle: saline with Tween-80
[3] = dose: 400.0 mg/kg/injection, schedule: Q01DX001 (ip), vehicle: saline with Tween-80
[4] = dose: 60.0 mg/kg/injection, schedule: Q01DX005 (ip), vehicle: saline with Tween-80
[5] = dose: 120.0 mg/kg/injection, schedule: Q01DX005 (ip), vehicle: saline with Tween-80
[6] = dose: 60.0 mg/kg/injection, schedule: Q01DX005 (ip), vehicle: saline
[7] = dose: 50.0 mg/kg/injection, schedule: Q01DX009 (ip), vehicle: saline
[8] = dose: 100.0 mg/kg/injection, schedule: Q01DX009 (ip), vehicle: saline
[9] = dose: 200.0 mg/kg/injection, schedule: Q01DX009 (ip), vehicle: saline
[10] = dose: 50.0 mg/kg/injection, schedule: Q01DX005 (ip), vehicle: saline with Tween-80
[11] = dose: 100.0 mg/kg/injection, schedule: Q01DX005 (ip), vehicle: saline with Tween-80
[12] = dose: 200.0 mg/kg/injection, schedule: Q01DX005 (ip), vehicle: saline with Tween-80
[13] = dose: 100.0 mg/kg/injection, schedule: Q04DX003 (ip), vehicle: saline with Tween-80
[14] = dose: 200.0 mg/kg/injection, schedule: Q04DX003 (ip), vehicle: saline with Tween-80
[15] = dose: 400.0 mg/kg/injection, schedule: Q04DX003 (ip), vehicle: saline with Tween-80
[16] = dose: 50.0 mg/kg/injection, schedule: Q01DX005 (ip), vehicle: Klucel (hydroxypropylcellulose) (HPC)
[17] = dose: 100.0 mg/kg/injection, schedule: Q01DX005 (ip), vehicle: Klucel (hydroxypropylcellulose) (HPC)
[18] = dose: 200.0 mg/kg/injection, schedule: Q01DX005 (ip), vehicle: Klucel (hydroxypropylcellulose) (HPC)
[19] = dose: 50.0 mg/kg/injection, schedule: Q01DX009 (ip), vehicle: Klucel (hydroxypropylcellulose) (HPC)
[20] = dose: 12.5 mg/kg/injection, schedule: Q01DX009 (ip), vehicle: Klucel (hydroxypropylcellulose) (HPC)
[21] = dose: 25.0 mg/kg/injection, schedule: Q01DX009 (ip), vehicle: Klucel (hydroxypropylcellulose) (HPC)
[22] = dose: 6.25 mg/kg/injection, schedule: Q01DX009 (ip), vehicle: Klucel (hydroxypropylcellulose) (HPC)

Measured: T/C

COC(=O)Cn1/c(=N\N=C(/C)c2ccc(OC)cc2)sc2ccccc21
inactive: [1] 101 % of control | [2] 117 % of control | [3] 92 % of control

Cc1cc(N2CCOCC2)n2c(nc3ccccc32)c1C#N
inactive: [4] 96 % of control | [5] 100 % of control

COc1ccccc1CC(C)N (stereo not drawn)
inactive: dose: 20.0 mg/kg/injection, schedule: Q04DX003 (ip), vehicle: saline 110 % of control | dose: 40.0 mg/kg/injection, schedule: Q04DX003 (ip), vehicle: saline 105 % of control | dose: 80.0 mg/kg/injection, schedule: Q04DX003 (ip), vehicle: saline 105 % of control

CC(C)SSC(=O)N1CCCC1C(=O)O (stereo not drawn)
inactive: dose: 15.0 mg/kg/injection, schedule: Q01DX005 (ip), vehicle: saline 106 % of control | dose: 30.0 mg/kg/injection, schedule: Q01DX005 (ip), vehicle: saline 98 % of control | [6] 98 % of control

[CH3][Ge]([CH3])([CH3])/[C](=[C](\c1ccccc1)[Ge]([CH3])([CH3])[CH3])c1ccccc1
inactive: [7] 106 % of control | [8] 92 % of control | [9] 93 % of control

COc1ccc(/C=N/NC(=O)COCC(=O)N/N=C/c2ccc(OC)cc2)cc1
inactive: [10] 100 % of control | [11] 88 % of control | [12] 91 % of control

CC(=O)OCC(COC(C)=O)=C1N=C(c2ccccc2)OC1=O
inactive: [13] 100 % of control | [14] 100 % of control | [15] 100 % of control

CCC(c1ccc(OC)cc1)C(NC(=S)Nc1cccc(C)c1)c1ccc(OC)cc1 (stereo not drawn)
inactive: [1] 90 % of control | [2] 92 % of control | [3] 93 % of control

CCOC(=O)C1=C(C)NC(C)=C(C(=O)OCC)C1C
inactive: [8] 102 % of control | [9] 89 % of control

CCN(CC)CC(=O)Nc1ccc2c(c1)C(=O)c1ccc(NC(=O)CN(CC)CC)cc1C2=O
inactive: [16] 90 % of control | dose: 50.0 mg/kg/injection, schedule: Q01DX005 (ip), vehicle: acid diluted with saline 100 % of control | [17] 93 % of control | dose: 100.0 mg/kg/injection, schedule: Q01DX005 (ip), vehicle: acid diluted with saline 103 % of control | [18] 90 % of control | dose: 200.0 mg/kg/injection, schedule: Q01DX005 (ip), vehicle: acid diluted with saline 106 % of control

CCN(CC)CCNC(=O)c1cc(Cl)c(N)cc1OC
inactive: dose: 3.12 mg/kg/injection, schedule: Q01DX005 (ip), vehicle: water 100 % of control and 105 % of control | dose: 6.25 mg/kg/injection, schedule: Q01DX005 (ip), vehicle: water 108 % of control and 95 % of control | dose: 12.5 mg/kg/injection, schedule: Q01DX005 (ip), vehicle: water 104 % of control and 105 % of control | dose: 25.0 mg/kg/injection, schedule: Q01DX005 (ip), vehicle: water 104 % of control and 107 % of control | dose: 50.0 mg/kg/injection, schedule: Q01DX005 (ip), vehicle: water 103 % of control and 111 % of control and 122 % of control | dose: 100.0 mg/kg/injection, schedule: Q01DX005 (ip), vehicle: water 100 % of control and 106 % of control and 117 % of control

COc1ccc(-c2ccc(OC)c(=O)cc2)c(OC)c1OC
inactive: [16] 93 % of control | [17] 105 % of control

CCOC(=O)CNC(=O)N1COCC1(C)C
inactive: [19] 95 % of control | dose: 100.0 mg/kg/injection, schedule: Q01DX009 (ip), vehicle: Klucel (hydroxypropylcellulose) (HPC) 95 % of control | dose: 200.0 mg/kg/injection, schedule: Q01DX009 (ip), vehicle: Klucel (hydroxypropylcellulose) (HPC) 95 % of control

Nc1ncnc2c1ncn2C1OC(COC2C(O)C(OC3OC(CO)C(O)C(O)C3N)C(O)C(OS(=O)(=O)O)C2OC(=O)[C@@H](N)CO)C(O)C1O (stereo partly drawn)
inactive: dose: 0.15 mg/kg/injection, schedule: Q01DX005 (ip), vehicle: Klucel (hydroxypropylcellulose) (HPC) 101 % of control | dose: 0.31 mg/kg/injection, schedule: Q01DX005 (ip), vehicle: Klucel (hydroxypropylcellulose) (HPC) 98 % of control | dose: 0.62 mg/kg/injection, schedule: Q01DX005 (ip), vehicle: Klucel (hydroxypropylcellulose) (HPC) 100 % of control | dose: 1.25 mg/kg/injection, schedule: Q01DX005 (ip), vehicle: Klucel (hydroxypropylcellulose) (HPC) 100 % of control and 94 % of control

NC(CSc1nc2ccccn2c1[N+](=O)[O-])C(=O)O (stereo not drawn)
inactive: [20] 98 % of control | [21] 100 % of control | [19] 99 % of control and 100 % of control

Cc1ncc2c(=O)c3c(ccc4ccccc43)oc2n1
inactive: dose: 50.0 mg/kg/injection, schedule: Q04DX003 (ip), vehicle: saline with Tween-80 96 % of control | [13] 96 % of control | [14] 97 % of control | [15] 103 % of control

Fc1ccc(NC(=S)SCc2ccc(Cl)cc2)c(F)c1
inactive: dose: 50.0 mg/kg/injection, schedule: Q01DX009 (ip), vehicle: suspension in saline 93 % of control | dose: 100.0 mg/kg/injection, schedule: Q01DX009 (ip), vehicle: suspension in saline 100 % of control | dose: 200.0 mg/kg/injection, schedule: Q01DX009 (ip), vehicle: suspension in saline 100 % of control

CNC(=S)NCOCCOC(C)=O
inactive: [6] 98 % of control | dose: 120.0 mg/kg/injection, schedule: Q01DX005 (ip), vehicle: saline 102 % of control | dose: 240.0 mg/kg/injection, schedule: Q01DX005 (ip), vehicle: saline 102 % of control

CSC(C(C)=O)c1ccccc1 (stereo not drawn)
inactive: dose: 25.0 mg/kg/injection, schedule: Q01DX009 (ip), vehicle: saline with Tween-80 100 % of control | dose: 50.0 mg/kg/injection, schedule: Q01DX009 (ip), vehicle: saline with Tween-80 100 % of control | dose: 100.0 mg/kg/injection, schedule: Q01DX009 (ip), vehicle: saline with Tween-80 104 % of control

O=C(CC(c1ccccc1Cl)C(C(=O)O)c1ccccc1)c1ccccc1 (stereo not drawn)
inactive: [16] 100 % of control | [17] 91 % of control | [18] 99 % of control

CC1CCC(C(C)C)C(NC(=O)c2cc[n+](C)cc2)C1 (stereo not drawn)
inactive: [16] 100 % of control | [17] 108 % of control

O=Cc1coc2ccccc2c1=O
inactive: dose: 25.0 mg/kg/injection, schedule: Q01DX009 (ip), vehicle: saline 120 % of control | [7] 110 % of control | [8] 119 % of control and 120 % of control

C=C1CC(O)C2C(=C)C(=O)OC2C2C(C)C(=O)CC12 (stereo not drawn)
inactive: [22] 112 % of control | [20] 107 % of control | [21] 115 % of control | [19] 116 % of control

O=C(O)CCc1c2ccc(=O)c(O)c-2oc2c(O)c(O)ccc12
inactive: [4] 104 % of control | [5] 98 % of control | dose: 240.0 mg/kg/injection, schedule: Q01DX005 (ip), vehicle: saline with Tween-80 103 % of control

[Cl][Cu][Cl].c1ccc2[nH]cnc2c1.c1ccc2[nH]cnc2c1
inactive: [22] 113 % of control | [20] 104 % of control | [21] 100 % of control

O=C(CN1CCCC1)Nc1nc(-c2ccc(Cl)cc2)cs1
inactive: [10] 96 % of control | [11] 100 % of control | [12] 91 % of control

Source: PubChem BioAssay AID330 (DTP/NCI, 2004)
